Assays:
H524 cells = test: Seahorse XF Cell Energy Phenotype Test; type: cell-based; conditions: LB100 2.5 μM
Protocol: FIGS. 5A-5F depict the effect of LB-100 on cell energy phenotype in SCLC cells. FIG. 5A: LB100 treatment (2.5 μM) induced metabolic switch in H524 cells. Cell energy phenotype was obtained by using XF Cell Energy Phenotype Reporter Generator. Empty squares indicate baseline energy phenotype, solid squares represent stressed energy phenotype measured after oligomycin/FCCP injection. FIGS. 5B and 5C: OCR and ECARin control (blue circles) and LB-100 (orange circles) H524 cells were measured overtime. (n=2, six different wells for each […]). FIG. 5D: Effect of LB-100 (10 μM) on H69 cell energy phenotype. FIGS. 5E and 5F: Effect of mitochondrial stressor on OCR and ECAR in H69 cells. Blue circles indicate control and orange circles show LB-100 treatment. (n=2, six technical replicates).
Next, we determined the effect of LB100 on ATP production in SCLC cells employing the Seahorse XF Cell Energy Phenotype Test. […] After drug treatment, we counted the number of cells and examined them for viability using exclusion of trypan blue as a readout. Cellular basal oxygen consumption rate (OCR) and extra-cellular acidification rate (ECAR) measurements were determined on a Seahorse XF96 analyzer. […]

MET = MET phosphorylation (Tyr 1234/1235) western blot after HGF stimulation; type: cell-based; conditions: HGF 10 min
From the text: FIGS. 4A-4F depict a reactome pathway analysis of PamGene PTKs and STKs after LB-100 treatment of H524 cells and Biolog phenotype MicroArray. […] Table includes 10 carbon sources affected by LB-100 (n=3). […] P<0.001 (***) for control (untreated cells) vs. LB-100. FIG. 4D: Amplex Red Glucose/Oxidase assay kit was used to measure glucose level in cell culture media. […] Glucose concentration detected in initial medium and counted as 100%. Subtracting final medium level of glucose from initial glucose medium concentration yielded % glucose in the medium with cells (n=3). Effect of LB-100 on MET phosphorylation. […] FIG. 4F: H524 cell lysates (control, LB-100, carboplatin and combination (LB-100/carboplatin) were analyzed by western blots to check phosphorylation status of MET at Ser985 and Tyr1234/1235. Actin was used as a loading control (n=3). […]
Whole cell lysates were prepared using RIPA lysis buffer and proteins were detected by immunoblotting using antibodies specific against PP2A A, PP2A C, Phospho-Histone H2AX (S139), MET, pMet (Tyr 1234/1235), Cleaved Caspase 3 and pan-Actin antibodies from CST (City of Industry, CA), Cleaved PARP1 (Santa Cruz Biotechnology, Dallas, Tex.) and pMET (Ser985) (ThermoFisher Scientific, Waltham, Mass.) were used as described previously (22).

H526 cells = conditions: human, 72 h
From the text: (§1) To determine specific cytotoxicity, we used Cell Counting Kit-8 (Dojindo Molecular Technologies, Rockville, Md.) as previously described (50).

H446 cells = conditions: human, 72 h
From the text: as §1

[1] = tested on: extensive-stage small cell lung carcinoma; conditions: first study subject
From the text: The Phase Ib study is a single arm study expected to enroll 18 evaluable patients (maximum 30) entered in groups of 3 at escalating doses of LB-100 using the traditional 3+3 design. […] Each cycle is defined as 3 weeks (21 days). Patients will then proceed to maintenance with LB-100 and atezolizumab. Patients who discontinue study therapy without disease progression will continue to be evaluated for tumor response using RECIST v1.1 (Appendix B) guidelines every 6-8 weeks until disease progression, death, or study closure.
Dose Escalation: The Phase I dose-finding will use a traditional 3+3 to determine the maximum tolerated dose (MTD), based on first cycle DLTs. A maximum of 4 dose levels of LB-100 will be explored. […]
Treatment Overview: This Phase Ib study of LB-100 diluted in 50 mL of normal saline for injection will be administered intravenously in the outpatient clinic over 15 minutes in patients with extensive-stage small cell lung cancer. […] All three patients at each dose level will be assessed for evidence of limiting toxicity through their return visit day 21 (and any delay prior to the start of cycle 2) before the decision is made for dose escalation in the next cohort.

## C[NH+]1CCN(C(=O)C2C(C(=O)O)[C@H]3CC[C@@H]2O3)CC1 (stereo in doubt) [LB-100, 3-[(4-Methylpiperazin-1-yl)carbonyl]-7-oxabicyclo[2.2.1]heptane-2-carboxylic acid]
H524 cells
  basal OCR lower compared to untreated cells: 4 fold
MET; H69, LB100 20 μM
  level of HGF phosphorylation of MET: significantly decreased
MET; H524, LB100 5 μM
  MET basal and HGF activated phosphorylation: almost abrogated
H526 cells
  IC50: 7.2 µM
H446 cells
  IC50: 6.9 µM
[1]; after the 2nd cycle, LB-100 0.83 mg/m2 days 1 & 3 with carboplatin/etoposide/atezolizumab
  partial objective response: 47%
[1]; following the 4th and last cycle of induction therapy
  decrease in measurable tumor: 58%

Reference: patent US20230065158A1, “OXABICYCLOHEPTANES FOR TREATMENT OF SMALL CELL LUNG CANCER” (Lixte Biotechnology, Inc., priority 2021, published 2023)
